Assay results as given in PMC8286823, “Identifying SARS-CoV-2 antiviral compounds by screening for small molecule inhibitors of nsp15 endoribonuclease” (Biochemical Journal, 2021).
pIC50: −log10 of the molar value. Values joined by “and” are separate entries in the source; they are usually repeats but may differ in a detail not shown here. Equal entries are not always repeated. Structures can show the parent of a compound that is named as a salt.

How the values were obtained:
[1] = target: T1, SARS-CoV-2 nsp15 endoribonuclease (Severe acute respiratory syndrome coronavirus 2, UniProt P0DTD1); assay: biochemical; type: biochemical
[2] = target: T1, SARS-CoV-2 nsp15 endoribonuclease; type: biochemical; details: 100 µM compound, 500 nM nsp15, 1 µM 16 nt U substrate; for mean cleavage (%): 20 min at 30°C, n=3
[3] = target: T1, SARS-CoV-2 nsp15 endoribonuclease
SARS-CoV-2 = SARS-CoV-2 infectivity assay in VERO E6 cells (viral area, anti-N staining); type: cell-based
Experimental: (§1) We infected VERO E6 cells with SARS-CoV-2 in the presence of a range of concentrations of NSC95397 and quantified viral infected area (Figure 5A,B). NSC95397 sacrificed VERO E6 cells at concentrations above 10 μM, consistent with previous reports that NSC95397 is an inhibitor of the Cdc25 protein phosphatase and multiple protein kinases [[39–42]]. This made it more difficult to assess viral growth. With the aim of finding a concentration of NSC95397 that inhibited viral growth without killing the cells, we performed a second titration at lower NSC95397 concentrations (Figure 5C,D).
(§2) Figure 5. […] (A) SARS-CoV-2 infectivity assays in the presence of NSC95397. DNA in cells was stained with DRAQ5, and virus was immunostained with anti-N antibody. (B) Quantification of normalised viral area (black) and cell area (gray) ±SD. […] (D) Quantification of C as in B. (E) SARS-CoV-2 infectivity assays as in C in the presence of 0.5 µM remdesivir. (F) Quantification of E as in B, note that black control line is quantification of control experiment in C.
(§3) Infectivity assays were performed as in the accompanying manuscript (see Zeng et al.). […] The whole well area was delineated, and area of Alexa488/N protein and DRAQ5/DNA signals were determined for each well. […]

RNase A = RNase A (Bos taurus, UniProt P61823); assay: Gel-based nuclease specificity assay with 16 nt U substrate, RNase A; type: biochemical; details: 0, 11, 33 or 100 µM; 1 pg/µl RNase A, 1 µM 16 nt U substrate
VERO E6 cells = assay: Cell survival (cell area, DRAQ5) in SARS-CoV-2 infectivity assay; type: cell-based, Chlorocebus sabaeus; details: infected VERO E6 cells, 22 h
Experimental: as §1, §2, §3

[4] = target: T2, Pierce Universal Nuclease (benzonase) (Serratia marcescens, UniProt P13717); assay: Gel-based nuclease specificity assay with 16 nt U substrate, benzonase; type: biochemical; details: 0, 11, 33 or 100 µM; 25 mU/µl Pierce Universal Nuclease, 1 µM 16 nt U substrate
T2 construct: purchased Pierce
T2 sequence (P13717 22-266): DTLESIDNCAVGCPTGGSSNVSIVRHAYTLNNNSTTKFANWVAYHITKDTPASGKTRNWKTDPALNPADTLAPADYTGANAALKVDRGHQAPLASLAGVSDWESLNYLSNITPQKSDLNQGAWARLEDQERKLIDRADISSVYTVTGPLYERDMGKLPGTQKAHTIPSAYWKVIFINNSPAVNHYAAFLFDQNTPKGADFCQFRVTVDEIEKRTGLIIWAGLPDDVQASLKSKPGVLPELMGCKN

Sequence of RNase A (P61823 27-150): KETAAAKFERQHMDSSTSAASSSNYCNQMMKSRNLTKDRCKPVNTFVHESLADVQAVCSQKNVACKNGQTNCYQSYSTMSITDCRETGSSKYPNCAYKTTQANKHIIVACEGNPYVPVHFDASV

SMILES	mean cleavage (%) [2]	activity [3]	other results
Cc1c(COc2cc(OCc3cccc(C#N)c3)c(CN3C[C@H](O)C[C@@H]3C(=O)O)cc2Cl)cccc1-c1ccc2c(c1)OCCO2 [BMS-1166]	58%		inhibition of nsp15 endoribonuclease activity in plate reader [1]: able to inhibit nsp15 endoribonuclease activity; effect on nsp15 endoribonuclease activity in gel-based assay [2]: did not inhibit the enzyme even at 100 µM
O=c1cc(-c2ccccc2)oc2cc(O)c(O)c(O)c12 [Baicalein]	64%	80%	
C=C(C)[C@@H]1CC[C@]2(C(=O)O)CC[C@]3(C)[C@H](CC[C@@H]4[C@@]5(C)CC[C@H](O)C(C)(C)[C@@H]5CC[C@]43C)[C@@H]12 [Betulinic acid]	51%		
Cl.Cl.NCCC(=O)NCCc1cnc[nH]1 [Carcinine dihydrochloride]	76%		
COc1cc(/C=C/C(=O)CC(=O)/C=C/c2ccc(O)c(OC)c2)ccc1O [Curcumin]		95% and 100%	
CN1C[C@H](C(=O)N[C@]2(C)O[C@@]3(O)[C@@H]4CCCN4C(=O)[C@H](Cc4ccccc4)N3C2=O)C[C@@H]2c3cccc4[nH]cc(c34)C[C@H]21 [Dihydroergotamine mesylate]		95% and 98%	
CN1C[C@H](C(=O)N[C@]2(C)O[C@@]3(O)[C@@H]4CCCN4C(=O)[C@H](Cc4ccccc4)N3C2=O)C=C2c3cccc4[nH]cc(c34)C[C@H]21 [Ergotamine]		99% and 100%	
O=C1c2cc([N+](=O)[O-])ccc2-n2c1nc1ccccc1c2=O [GNF-PF-3777]	60%		effect on nsp15 endoribonuclease activity in gel-based assay [2]: had no effect even at 100 µM
Cn1cnc2nc(NCCO)nc(NCc3ccccc3)c21 [Iso-Olomoucine]	60%		
CC(C)(C)c1nc2c3cc[nH]c(=O)c3c3cc(F)ccc3c2[nH]1 [JAK Inhibitor I]	65%		
CCCNS(=O)(=O)Nc1ncnc(OCCOc2ncc(Br)cn2)c1-c1ccc(Br)cc1 [Macitentan]	64%		
CC#C[C@]1(O)CC[C@H]2[C@@H]3CCC4=CC(=O)CCC4=C3[C@@H](c3ccc(N(C)C)cc3)C[C@@]21C [Mifepristone]	63%	85%	
O=Nc1ccc2oc(=O)ccc2c1 [NOBP]	63%		
O=C1C(SCCO)=C(SCCO)C(=O)c2ccccc21 [NSC95397]	9%		Hill slope [1]: -2.5; pIC50 [1]: 4.37; inhibition of nsp15 endoribonuclease activity in plate reader [1]: able to inhibit nsp15 endoribonuclease activity; SARS-CoV-2 viral growth in VERO E6 cells (SARS-CoV-2; MOI 0.5 PFU/cell, 22 h post-infection, titration at lower concentrations): viral growth was not inhibited; additive effect with remdesivir on SARS-CoV-2 infectivity (SARS-CoV-2; VERO E6 cells, NSC95397 titration in the presence of 0.5 µM remdesivir): did not observe any additive effect; effect on nsp15 endoribonuclease activity in gel-based assay [2]: inhibited nsp15 endoribonuclease; effect on nuclease cleavage by RNase A (RNase A): did not affect nuclease cleavage; concentration that sacrificed VERO E6 cells (VERO E6 cells): above 10 μM; effect on nuclease cleavage by benzonase [4]: did not affect nuclease cleavage
CO[C@@H]1[C@@H](OC(N)=O)[C@@H](O)[C@H](Oc2ccc3c(O)c(NC(=O)c4ccc(O)c(CC=C(C)C)c4)c(=O)oc3c2C)OC1(C)C [Novobiocin]		98% and 95%	
Cc1ncc([N+](=O)[O-])n1CC(O)CCl (stereo not drawn) [Ornidazole]	62%	66%	
CC(COc1ccccc1)N(CCCl)Cc1ccccc1 (stereo not drawn) [Phenoxybenzamine]	58%	37%	
Oc1cc2c(cc1O)C(c1ccccc1)CNCC2 (stereo not drawn) [SKF 38393 hydrobromide]	62%	65%	
C[C@H]1CC[C@@]2(OC1)O[C@H]1C[C@H]3[C@@H]4CC[C@@H]5C[C@@H](O)CC[C@]5(C)[C@H]4CC[C@]3(C)[C@H]1[C@@H]2C [Sarsasapogenin]		100% and 96%	
